This note sets out measurements from patent US5401875A, “2-aminocarboxylic acids and their derivatives, processes for their preparation and their use as medicaments” (Godecke Aktiengesellschaft, priority 1988, dated 1995).

By IC50 is commonly meant the point on the concentration scale where inhibition reaches its midpoint.

In one test the target is protein kinase C. Put plainly: C-kinase: inhibition of protein kinase C, incorporation of phosphorus-32 labelled phosphate in histone. Type of test: biochemical, rat brain or chicken stomach smooth muscle. Conditions: pH 7.5; 10 μM ATP; 5 nM PKC; 5 min at 30° C. The procedure: The enzyme is purified from rat brain or smooth muscle (chicken stomach). Its activity is determined via the incorporation of phosphorus-32 labelled phosphate in histone. The reaction batch of 200 μL contains the following components: 50 mM HEPES-NaOH, pH 7.5, 5 mM MgCl2, 1 mM DTT, 4 μM free Ca^2+, 10 μM ATP, 1 μg phosphatidylserine, 0.2 μg 1,2-diolein, as well as 40 μg histone H-1. The batch is preincubated for 4 minutes at 30° C. and the reaction then started by addition of 5 nM PKC. After 5 minutes incubation at 30° C. the reaction is stopped with 10% TCA and the samples then filtered off. The phosphate incorporation is determined by means of Cerenkov counting in a scintillation counter.

For test [1], the target named is T1, cycloAMP-dependent kinase (Homo sapiens, UniProt P17612).
T1 construct: purchased
The experiment in a line: A-kinase: inhibition of cyclic AMP-dependent kinase (commercially available catalytic subunit), phosphorus-32 incorporation into histone. Type of test: biochemical. Conditions: pH 7.5; 40 μM ATP; histone-H-2B; read-out: Inhibition of cAMP-kinase, IC50-values. The procedure: The measurement of the activity takes place with the commercially available catalytic subunit of the enzyme. The incorporation of phosphorus-32 labelled phosphate into histone is thereby measured. The reaction batch of 200 μL contains the following components: 50 mM PIPES-NaOH, pH 7.5, 10 mM MgCl2, 1 mM DTT, 40 μM ATP, as well as 50 μg histone-H-2B. The carrying out of the test takes place as in the case of C-kinase.

The target of test [2] is T2, cycloGMP-dependent kinase (Bos taurus, UniProt P00516).
T2 construct: The enzyme was purified from bovine lung; from tissue; host or cells: bovine lung
T2 sequence (P00516 1-671): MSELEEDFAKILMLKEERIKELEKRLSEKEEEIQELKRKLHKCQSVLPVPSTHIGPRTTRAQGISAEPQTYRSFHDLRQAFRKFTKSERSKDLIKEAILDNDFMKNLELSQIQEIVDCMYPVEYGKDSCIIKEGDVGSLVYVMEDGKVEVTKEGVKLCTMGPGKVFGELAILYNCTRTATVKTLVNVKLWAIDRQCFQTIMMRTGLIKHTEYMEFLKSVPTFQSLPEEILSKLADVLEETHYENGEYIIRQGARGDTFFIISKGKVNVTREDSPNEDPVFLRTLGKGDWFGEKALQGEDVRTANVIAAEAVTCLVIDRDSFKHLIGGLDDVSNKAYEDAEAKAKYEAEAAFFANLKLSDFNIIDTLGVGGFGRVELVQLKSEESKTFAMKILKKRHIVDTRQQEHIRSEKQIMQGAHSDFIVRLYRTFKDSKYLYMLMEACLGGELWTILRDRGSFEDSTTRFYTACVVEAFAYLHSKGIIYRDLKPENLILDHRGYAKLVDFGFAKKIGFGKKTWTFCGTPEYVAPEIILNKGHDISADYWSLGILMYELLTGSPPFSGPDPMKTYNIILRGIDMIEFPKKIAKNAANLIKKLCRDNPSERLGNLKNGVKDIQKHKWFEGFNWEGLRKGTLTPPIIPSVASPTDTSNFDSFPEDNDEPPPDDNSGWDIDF
Put plainly: G-kinase: inhibition of cyclic GMP-dependent kinase, phosphorus-32 incorporation into histone. Type of test: biochemical, bovine. Conditions: pH 7.4; 10 μM ATP; 10 μM cGMP; 2.5 nM G-kinase. How it is done:
The enzyme was purified from bovine lung and its activity determined via the incorporation of phosphorus 32-labelled phosphate into histone. In the test batch are contained the following components: 20 mM Tris-HCl, pH 7.4, 5 mM MgCl2, 1 mM DTT, 10 μM ATP, 10 μM cGMP, 40 μg BSA, 2% glycerol, as well as 10 μg histone II-A. The starting of the reaction takes place by addition of 2.5 nM G-kinase. Otherwise, the carrying out of the test takes place as in the case of C-kinase.

Test [3] concerns the target T3, myosine light chain kinase (Gallus gallus, UniProt P11799).
T3 construct: Not only the enzyme but also the substrate (MLC) are purified from chicken stomach; from tissue; host or cells: chicken stomach
Put plainly: MLC-kinase: inhibition of myosine light chain kinase, phosphorus-32 incorporation into MLC. Format: biochemical, chicken. Conditions: pH 7.2; 250 μM ATP; 25 μM MLC; about 1 nM MLC kinase. The procedure:
Not only the enzyme but also the substrate (MLC) are purified from chicken stomach. The activity measurement also takes place via the incorporation of phosphorus-32 labelled phosphate. The reaction batch of 200 μL contains the following components: 50 mM MOPS-NaOH, pH 7.2, 5 mM MgCl2, 100 μM CaCl2, 100 nM calmodulin, 1 mM DTT, 250 μM ATP, as well as 25 μM MLC. The reaction is started by addition of about 1 nM MLC kinase; otherwise, the carrying out of the test takes place as in the case of C-kinase.

Structures can show the parent of a compound that is named as a salt.

T3 sequence (P11799 935-1906 limits assumed): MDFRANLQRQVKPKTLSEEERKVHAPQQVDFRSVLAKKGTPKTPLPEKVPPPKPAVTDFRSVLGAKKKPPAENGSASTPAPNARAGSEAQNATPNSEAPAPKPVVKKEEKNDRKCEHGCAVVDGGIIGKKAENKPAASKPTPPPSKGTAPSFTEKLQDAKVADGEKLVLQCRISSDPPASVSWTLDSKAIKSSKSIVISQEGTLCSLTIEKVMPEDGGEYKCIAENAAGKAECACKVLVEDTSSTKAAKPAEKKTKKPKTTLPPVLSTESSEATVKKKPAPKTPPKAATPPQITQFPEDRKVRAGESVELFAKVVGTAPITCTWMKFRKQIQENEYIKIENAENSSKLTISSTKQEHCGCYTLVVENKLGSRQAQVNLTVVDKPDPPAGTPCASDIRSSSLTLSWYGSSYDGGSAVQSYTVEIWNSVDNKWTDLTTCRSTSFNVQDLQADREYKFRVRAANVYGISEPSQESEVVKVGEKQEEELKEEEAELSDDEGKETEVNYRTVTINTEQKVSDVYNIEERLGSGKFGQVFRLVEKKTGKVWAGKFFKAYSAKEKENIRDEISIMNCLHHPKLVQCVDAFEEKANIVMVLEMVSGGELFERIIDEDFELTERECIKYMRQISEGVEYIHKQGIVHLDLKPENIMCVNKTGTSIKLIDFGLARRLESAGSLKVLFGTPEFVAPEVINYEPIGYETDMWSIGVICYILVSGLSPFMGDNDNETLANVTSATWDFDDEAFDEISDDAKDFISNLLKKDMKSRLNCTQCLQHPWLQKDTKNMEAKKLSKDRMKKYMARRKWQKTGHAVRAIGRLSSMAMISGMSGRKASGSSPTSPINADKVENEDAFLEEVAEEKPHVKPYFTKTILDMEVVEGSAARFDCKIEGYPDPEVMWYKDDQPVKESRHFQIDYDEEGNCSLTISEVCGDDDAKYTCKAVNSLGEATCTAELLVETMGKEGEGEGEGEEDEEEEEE

As to `CCCCCCCCCCCCCCCCCCOCC(CN(C)C)OC(C)=O` (racemic) [A, (±)1-dimethylamino-3-octadecyloxy-2-propyl acetate hydrochloride], the IC50 at protein kinase C is 5 µM; in test [1], above 100 µM; in test [2], above 100 µM; in test [3] it was above 100 µM.

As to `CCCCCCCCCCCCCCCCCCOCC(O)CN(C)C(CO)C(=O)O` (stereo not drawn) [Example 1, 2-[N-Methyl-N-(3-octadecyloxy-2-hydroxypropyl)]-amino-3-hydroxypropionic acid hydrochloride], the IC50 at protein kinase C is 2.5 µM; in test [1] it was above 100 µM; in test [2] it was above 100 µM; in test [3], above 100 µM.

Turning to `CCCCCCCCCCOCC(CN1CCC(CN)(c2ccccc2)CC1)OCCCCCCCCCC` (stereo not drawn) [B], the IC50 against protein kinase C was 7 µM; in test [1] it was 29 µM; in test [2], 28 µM; in test [3], 5.1 µM.
